Earlier results in publication PMC3735122 (mBio, 2013).

Tested on: seasonal H3N2 isolates with R292K NA mutation
Conditions: cited from earlier work

| Structure (SMILES) | sensitivity of seasonal H3N2 isolates with R292K mutation |
| --- | --- |
| CCC(CC)[C@H](NC(C)=O)[C@@H]1[C@H](O)[C@@H](C(=O)O)C[C@H]1N=C(N)N [peramivir] | intermediate resistance |
| CCC(CC)O[C@@H]1C=C(C(=O)O)C[C@H](N)[C@H]1NC(C)=O [oseltamivir carboxylate] | significantly reduced sensitivity |
| CC(=O)N[C@H]1[C@H]([C@H](O)[C@H](O)CO)OC(C(=O)O)=C[C@@H]1N=C(N)N [zanamivir] | slightly reduced sensitivity |
